What was measured:
Assay type in all cases: in vivo
southern armyworm = assay: Southern armyworm foliar spray test on bean plants; details: Spodoptera eridania, 120 h; foliar application at 100 ppm; second instar larvae, held five days; read-out: pest mortality SAW
Method: (§1) For mite, aphid, southern armyworm, Mexican bean beetle, and tobacco budworm tests, a solution or suspension was prepared by adding 10 mg of the test compound to a solution of 160 mg of dimethylformamide, 838 mg of acetone, 2 mg of a 3:1 ratio of Triton X-172 : Triton X-152 (respectively, mainly anionic and nonionic low foam emulsifiers which are each anhydrous blends of alkylaryl polyether alcohols with organic sulfonates), and […] of water. The result was a concentration of 100 ppm of the test compound.
(§2) Southern armyworm: Potted bean plants, were placed on a revolving turntable and sprayed with 100 ml of the 100 ppm test compound formulation by use of a DeVilbiss spray gun set at 40 psig air pressure. As an untreated control, 100 ml of a water-acetone-DMF-emulsifier solution, containing no test compound, were also sprayed on plants. A treated control with a commercial technical compound, either cypermethrin or sulprofos, formulated in the same manner, was tested as a standard. When dry, the leaves were placed in plastic cups lined with moistened filter paper. Five randomly selected second instar southern armyworm larvae were introduced into each cup which was closed and held for five days. Larvae which were unable to move the length of the body, even upon stimulation by prodding, were considered dead.

housefly = assay: House fly bait test; details: Musca domestica; bait application at 100 ppm; adult flies, after 24 hours; read-out: pest mortality HF
Description: For housefly tests, the formulation was initially prepared in a similar manner to the above, but in 16.3 g of water with corresponding adjustment of other components, providing a 200 ppm concentration. Final dilution with an equal volume of a 20% by weight aqueous solution of sucrose provided a 100 ppm concentration of the test compound. When necessary, sonication was provided to insure complete dispersion.
House fly: Four to six day old adult house flies were reared according to the specifications of the Chemical Specialties Manufacturing Association (Blue Book, McNair-Dorland Co., N.Y. 1954; pages 243-244, 261) under controlled conditions. The flies were immobilized by anesthetizing with carbon dioxide and twenty five immobilized individuals, males and females, were transferred to a cage consisting of a standard food strainer and a wrapping-paper-covered surface. Ten ml of the 100 ppm test compound formulation were added to a soufflé cup containing an absorbent cotton pad. As an untreated control, 10 ml of a water-acetone-DMF-emulsifier-sucrose solution, containing no test compound, were applied in a similar manner. A treated control with a commercial technical compound, malathion, formulated in the same manner, was tested as a standard. The bait cup was introduced inside the food strainer prior to admitting the anesthetized flies.

twospotted spider mite = assay: Twospotted spider mite test; details: Tetranychus urticae, foliar, 144 h, read-out: control of mites
Method: Twospotted spider mite: Leaves infested with adult and nymphal stages of the two-spotted spider mite, obtained from a stock culture were placed on the primary leaves of two bean plants growing in a 6 cm. peat pot. A sufficient number of mites (150-200) for testing were transferred to the fresh plants within a period of twenty-four hours. The potted plants (one pot per compound) were placed on a revolving turntable and sprayed, sufficient to wet the plants to runoff, with 100 ml of the 100 ppm test compound formulation by use of a DeVilbiss spray gun set at 40 psig. air pressure. As an untreated control, 100 ml of the water-acetone-DMF-emulsifler solution, containing no test compound, were also sprayed on infested plants. A treated control with a commercial technical compound, either dicofol or hexythiazox, formulated in the same manner, was tested as a standard. The sprayed plants were held for six days, after which a mortality count of motile forms was made.

[1] = tested on: southern root-knot nematode; assay: Southern root-knot nematode soil test on tomato; set-up: dose or concentration left out as unconfirmed; details: Meloidogyne incognita; Soil Conc. at 21 Kg/ha; second stage juveniles; read-out: pest mortality Nema (J2)
Method: For southern root-knot nematode and systemic tests for southern armyworm, cotton aphid, tobacco budworm and greenbug, a stock solution or suspension was prepared by adding 15 mg of the test compound to 250 mg of dimethylformamide, 1250 mg of acetone and 3 mg of the emulsifier blend referenced above. Water was then added to provide a test compound concentration of 150 ppm. When necessary, sonication was provided to insure complete dispersion.
Southern root-knot nematode: Infected roots of tomato plants, containing egg masses of southern root-knot nematode, were removed from a stock culture and cleaned of soil by shaking and washing with tap water. The nematode eggs were separated from the root tissue and rinsed with water. Samples of the egg suspension were placed on a fine screen over a receiving bowl, in which the water level was adjusted to be in contact with the screen. From the bowl, juveniles were collected on a fine screen. The bottom of a cone-shaped container was plugged with coarse vermiculite and then filled to within 1.5 cm of the top with about a 200 ml volume of pasteurized soil. Then into a hole made in the center of the soil in the cone was pipetted an aliquot of the 150 ppm test compound formulation. A treated control with a commercial technical compound, fenamifos, formulated in a similar manner, was tested as a standard. As an untreated control, an aliquot of a water-acetone-DMF-emulsifier solution, containing no test compound, was applied in a similar manner. Immediately after treatment of the soil with the test compound there were added to the top of each cone 1000 second stage juvenile southern root-knot nematodes. After 3 days, a single healthy tomato seedling was then transplanted into the cone. The cone, containing the infested soil and tomato seedling, was kept in the greenhouse for 3 weeks. At the termination of the test, […], […]

Mexican bean beetle = Mexican bean beetle foliar spray test on bean plants; details: Epilachna varivestis, 120 h; foliar application at 100 ppm; second instar larvae, held five days; read-out: pest mortality MBB
Method: as §1
as §2, with “Mexican bean beetle:” for “Southern armyworm:”, “plants” for “plants,”, “formulation, sufficient to wet the plants to runoff,” for “formulation”, “Mexican bean beetle” for “southern armyworm”

Q: How did the mortality at 100 ppm (southern armyworm) turn out when `COC(C)C(=O)Nc1c([S+]([O-])C(F)(F)F)c(C#N)nn1-c1c(Cl)cc(C(F)(F)F)cc1Cl` (centres unmarked) [Compound 24] was run?
A: 70 to 100%

Q: And the mortality at 100 ppm (housefly)?
A: 70 to 100%

Q: What about the mortality at 100 ppm (twospotted spider mite) of the same molecule?
A: 30 to 70%

Q: And the mortality [1]?
A: 70 to 100%

Q: What about the mortality at 100 ppm (Mexican bean beetle) of the same molecule?
A: 70 to 100%

From patent EP0811615A1, “1-Aryl-5-(substituted alkyl (thio) amido) pyrazoles and their use as pesticides” (RHONE-POULENC AGROCHIMIE, priority 1996, dated 1997)
